One data set deals with E. coli, (EC). Nature of the data set: Bacterial growth by optical density, peptides with or without surfactants. In kind it is cell-based, Escherichia coli. Here is the method:
Bacteria E. coli, (EC) and S. aureus, (SA) were grown in LB media at 37° C. with continuous shaking for 24 hours. The bacterial concentration was then adjusted such that the absorbance at 600 (A600) was controlled to ca 0.2 unit. The bacteria suspensions with the peptides were incubated in 96-well tissue culture plates. The total medium volume in each well was […]. […] Controls with media only and media with bacteria only were run alongside the peptide bacteria mixed suspensions. Measurements were taken at time t=0, t=20 and t=72 hours using optical density cell plate reader. The optical density (OD) is representative of the relative amount of bacterial growth within the medium.
The antibacterial activities of the designed short peptides in the presence of selected surfactants were investigated to determine if the peptides would sustain their antibacterial performance when surfactants are present. Bacteria E. coli, (EC) and S. aureus, (SA) were grown in LB media at 37° C. with continuous shaking for 24 hours. The bacterial concentrations were then adjusted such that the absorbance at 600 (A600) was controlled to ca 0.2 unit. The bacteria suspensions with the peptides were incubated in 96-well tissue culture plates. The total medium volume in each well was […]. […] Controls used were (i) media only, (ii) media with bacteria only and (iii) bacteria with media containing peptides at a particular concentration. These were run alongside the peptide+bacteria and selected surfactant mixed suspensions. Measurements were taken at time t=0, t=20 and t=72 hours using optical density cell plate reader. Surfactants were added such that the final concentration was 1% within the wells.

Data set [1] relates to fibroblasts Adult (HDFa) cells. Nature of the data set: MTT viability of fibroblasts over three days. In kind it is cell-based, human. Here is the method:
(§1) MTT assay: Cell viability and proliferation is widely assessed by the MTT assay as already described previously.
(§2) The fibroblasts cells, Neonatal (HDFn) and Adult (HDFa), were both grown until greater than 80% confluent. […] After 24 hour incubation the culture medium was replaced with fresh medium containing an appropriate amount of the peptide for investigation.
(§3) The viability of the fibroblasts, Adult (HDFa) and Neonatal (HDFn) cells in the presence of surfactants was tested by MTT assay over three days relative to control wells containing cells only.

Data set [2] is described as follows: MTT viability of fibroblasts over three days. In kind it is cell-based, human. Particulars: human, adult fibroblasts (HDFa cells). Here is the method:
as §1, §2, §3

The nature of a further data set: in vitro. In kind it is cell-based. As to conditions: human, neonatal fibroblasts (HDFn cells). Here is the method:
as §1
The fibroblasts cells, Neonatal (HDFn) and Adult (HDFa), were both grown until greater than 80% confluent. The cells were then harvested and seeded into micro well plate at cell densities of 5000 cells/well in a volume […] of medium. After 24 hour incubation the culture medium was replaced with fresh medium containing an appropriate amount of the peptide for investigation.

8 compounds from US9745348B2 (The University of Manchester, priority 2011, dated 2017) can be followed below.

Read-outs that look alike come from different tables or passages of the source. Where no end group is shown, it is not given here.

By viability is commonly meant a read-out of living cells in per cent, often relative to untreated cells.

With `CC1(C)S[C@@H]2[C@H](NC(=O)[C@H](N)c3ccccc3)C(=O)N2[C@H]1C(=O)O` [Ampicillin, ampicillin], the “bacterial growth (optical density)” value is listed as 0.20 in the data set on E. coli, (EC) (T = 0 HOUR, NO SURF, 25 μM); 0.20 in the data set with E. coli, (EC) (T = 0 HOUR, NO SURF, 50 μM); 0.19 with E. coli, (EC) (T = 0 HOUR, NO SURF, 100 μM); 0.27 in the data set on E. coli, (EC) (T = 0 HOUR, with 1% C12TAB, 25 μM); 0.26 in the data set on E. coli, (EC) (T = 0 HOUR, with 1% C12TAB, 50 μM); 0.27 with E. coli, (EC) (T = 0 HOUR, with 1% C12TAB, 100 μM). In addition, the “bacterial growth (optical density)” value in the data set with E. coli, (EC) (T = 0 HOUR, with 1% F127, 25 μM) is reported as 0.20; in the data set with E. coli, (EC) (T = 0 HOUR, with 1% F127, 50 μM) it was 0.20; in the data set with E. coli, (EC) (T = 0 HOUR, with 1% F127, 100 μM), 0.17; in the data set with E. coli, (EC) (T = 0 HOUR, with 1% Mx, 25 μM) it was 0.21; with E. coli, (EC) (T = 0 HOUR, with 1% Mx, 50 μM), 0.20; with E. coli, (EC) (T = 0 HOUR, with 1% Mx, 100 μM) it was 0.20. Moreover, the “bacterial growth (optical density)” value in the data set with E. coli, (EC) (T = 0 HOUR, with 1% SLES, 25 μM) is 0.22; in the data set on E. coli, (EC) (T = 0 HOUR, with 1% SLES, 50 μM), 0.18; in the data set with E. coli, (EC) (T = 0 HOUR, with 1% SLES, 100 μM) it was 0.15; with E. coli, (EC) (T = 0 HOUR, with 1% Tt, 25 μM) it was 0.22; in the data set with E. coli, (EC) (T = 0 HOUR, with 1% Tt, 50 μM) it was 0.15; in the data set on E. coli, (EC) (T = 0 HOUR, with 1% Tt, 100 μM), 0.14. Moreover, the “bacterial growth (optical density)” value in the data set on E. coli, (EC) (T = 20 HOUR, NO SURF, 25 μM) came out at 0.20; with E. coli, (EC) (T = 20 HOUR, NO SURF, 50 μM), 0.16; in the data set with E. coli, (EC) (T = 20 HOUR, NO SURF, 100 μM), 0.16; in the data set with E. coli, (EC) (T = 20 HOUR, with 1% C12TAB, 25 μM) it was 0.27; with E. coli, (EC) (T = 20 HOUR, with 1% C12TAB, 50 μM), 0.26; in the data set on E. coli, (EC) (T = 20 HOUR, with 1% C12TAB, 100 μM) it was 0.26. Further, the “bacterial growth (optical density)” value in the data set on E. coli, (EC) (T = 20 HOUR, with 1% F127, 25 μM) turned out to be 0.15; with E. coli, (EC) (T = 20 HOUR, with 1% F127, 50 μM), 0.13; with E. coli, (EC) (T = 20 HOUR, with 1% F127, 100 μM) it was 0.14; with E. coli, (EC) (T = 20 HOUR, with 1% Mx, 25 μM), 0.32; in the data set with E. coli, (EC) (T = 20 HOUR, with 1% Mx, 50 μM) it was 0.28; with E. coli, (EC) (T = 20 HOUR, with 1% Mx, 100 μM) it was 0.25. In addition, the “bacterial growth (optical density)” value in the data set on E. coli, (EC) (T = 20 HOUR, with 1% SLES, 25 μM) is 0.08; in the data set with E. coli, (EC) (T = 20 HOUR, with 1% SLES, 50 μM), 0.08; with E. coli, (EC) (T = 20 HOUR, with 1% SLES, 100 μM), 0.06; in the data set with E. coli, (EC) (T = 20 HOUR, with 1% Tt, 25 μM), 0.09; in the data set on E. coli, (EC) (T = 20 HOUR, with 1% Tt, 50 μM), 0.07; in the data set on E. coli, (EC) (T = 20 HOUR, with 1% Tt, 100 μM), 0.07.
In the case of `CCCCCCCCCCCCOCCOCCOCCOCCOCCO` [Helix C12E5, Pentaethylene glycol monododecyl ether], the “MTT results (relative MTT reading)” value amounted to 0.01 in data set [1] (human, 1 day, 0.5 %); 0.01 in data set [1] (human, 2 day, 0.5 %); 0.01 in data set [1] (human, 3 day, 0.5 %).
As for `CCCCCCCCCCCCOCCOCCOCCOCCOCCOCCO` [Helix C12E6, Hexaethylene glycol monododecyl ether], the “MTT results (relative MTT reading)” value in data set [1] (human, 1 day, 1 %) was 0.01; in data set [1] (human, 2 day, 1 %) it was 0.01; in data set [1] (human, 3 day, 1 %), 0.01.
With `CCCCCCCCCCCCOS(=O)(=O)[O-].[Na+]` [SDS, Sodium dodecyl sulphate], the “MTT results (relative MTT reading)” value is reported as 0.01 in data set [1] (HDFa, surfactant 1%, Day 1); 0.01 in data set [1] (HDFa, surfactant 1%, Day 2); 0.01 in data set [1] (HDFa, surfactant 1%, Day 3).
Regarding “GIIKKIIKKI-NH2 [Helix G2, G(IIKK)2 I-NH2]”, in data set [2], the viability at 24 h, 5 µM amounted to 101%; the viability at 24 h, 25 µM was determined as 98%; the viability at 24 h, 50 µM was determined as 92%; the viability at 24 h, 100 µM was found to be 91%. In data set [2], the viability at 48 h, 5 µM is 96%; the viability at 48 h, 25 µM was 90%; the viability at 48 h, 50 µM was 90%; the viability at 48 h, 100 µM came to 88%. Also, in data set [2], the viability at 72 h, 5 µM was found to be 95%; the viability at 72 h, 25 µM is 88%; the viability at 72 h, 50 µM stood at 79%; the viability at 72 h, 100 µM worked out at 80%.
Consider “GIKKKIIKKIIKII-NH2 [GIK, GIK(KKII)2 KII-NH2]”, for which, in data set [2], the viability at 24 h, 5 µM worked out at 97%; the viability at 24 h, 25 µM was found to be 92%; the viability at 24 h, 50 µM amounted to 87%; the viability at 24 h, 100 µM was found to be 85%. In data set [2], the viability at 48 h, 5 µM was 95%; the viability at 48 h, 25 µM amounted to 93%; the viability at 48 h, 50 µM stood at 78%; the viability at 48 h, 100 µM worked out at 74%. In data set [2], the viability at 72 h, 5 µM turned out to be 91%; the viability at 72 h, 25 µM stood at 90%; the viability at 72 h, 50 µM was 73%; the viability at 72 h, 100 µM turned out to be 65%. Moreover, in the data set “in vitro”, the viability at 24 h, 5 µM came to 93%; the viability at 24 h, 25 µM worked out at 98%; the viability at 24 h, 50 µM was 92%; the viability at 24 h, 100 µM was determined as 85%. In the data set “in vitro”, the viability at 48 h, 5 µM worked out at 87%; the viability at 48 h, 25 µM was found to be 84%; the viability at 48 h, 50 µM stood at 81%; the viability at 48 h, 100 µM stood at 78%. In addition, in “in vitro”, the viability at 72 h, 5 µM was found to be 83%; the viability at 72 h, 25 µM is 78%; the viability at 72 h, 50 µM is 75%; the viability at 72 h, 100 µM worked out at 71%.
In the case of GLLKKLLKKLLKKL-NH2 [GL, G(LLKK)3 L-NH2], in data set [2], the viability at 24 h, 5 µM was 91%; the viability at 24 h, 25 µM stood at 90%; the viability at 24 h, 50 µM amounted to 87%; the viability at 24 h, 100 µM worked out at 63%. Also, in data set [2], the viability at 48 h, 5 µM is 90%; the viability at 48 h, 25 µM came out at 88%; the viability at 48 h, 50 µM came to 75%; the viability at 48 h, 100 µM turned out to be 57%. In data set [2], the viability at 72 h, 5 µM was determined as 87%; the viability at 72 h, 25 µM amounted to 74%; the viability at 72 h, 50 µM was determined as 46%; the viability at 72 h, 100 µM was 11%. For the same compound, in “in vitro”, the viability at 24 h, 5 µM amounted to 98%; the viability at 24 h, 25 µM came to 88%; the viability at 24 h, 50 µM turned out to be 85%; the viability at 24 h, 100 µM came out at 80%. For the same compound, in “in vitro”, the viability at 48 h, 5 µM was 87%; the viability at 48 h, 25 µM was 84%; the viability at 48 h, 50 µM came to 74%; the viability at 48 h, 100 µM was determined as 65%. Besides, in “in vitro”, the viability at 72 h, 5 µM came to 83%; the viability at 72 h, 25 µM stood at 81%; the viability at 72 h, 50 µM stood at 67%; the viability at 72 h, 100 µM is 35%.
As for cocamide ethanolamines [CMEA], the “MTT results (relative MTT reading)” value in data set [1] was determined as 0.00.
